From patent US8183414B2, “N-(1-phenyl-2-arylethyl)-4,5-dihydro-2H-pyrrol-5-amine compounds as subtype selective modulators of ALPHA2B or ALPHA2B and ALPHA2C adrenoceptors” (Allergan, Inc., priority 2008, dated 2012)
Where two headings read alike, the source gives them in different places.

Legend:
Type in all cases: cell-based
α2B adrenergic receptor = biological target: T1, α2B adrenergic receptor (Homo sapiens, UniProt P18089); test: RSAT (Receptor Selection and Amplification Technology) assay, α2B; settings: for EC50 / RSAT EC50 α2B: cells expressing the receptor alone, receptor-mediated growth response, NA = not active; for RSAT Rel Eff α2B: relative efficacy compared to a standard full agonist
T1 construct: expressed in transfected cells
T1 sequence (P18089 1-450): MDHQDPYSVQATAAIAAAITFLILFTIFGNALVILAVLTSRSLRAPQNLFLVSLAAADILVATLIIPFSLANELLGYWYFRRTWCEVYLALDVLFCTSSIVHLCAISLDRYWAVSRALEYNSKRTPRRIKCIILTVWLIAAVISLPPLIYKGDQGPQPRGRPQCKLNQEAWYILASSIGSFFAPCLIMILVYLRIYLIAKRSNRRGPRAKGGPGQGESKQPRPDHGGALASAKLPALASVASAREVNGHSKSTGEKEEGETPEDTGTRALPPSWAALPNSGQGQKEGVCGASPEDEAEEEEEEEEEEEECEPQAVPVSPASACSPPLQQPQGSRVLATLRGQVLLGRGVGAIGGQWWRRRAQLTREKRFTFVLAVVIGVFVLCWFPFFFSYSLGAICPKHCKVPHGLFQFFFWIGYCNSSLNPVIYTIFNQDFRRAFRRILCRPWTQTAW
Description: (§1) Cells expressing each of the alpha-2 adrenergic receptors alone were incubated with the various compounds and a receptor-mediated growth response was measured.

α2C adrenergic receptor = biological target: T2, α2C adrenergic receptor (Homo sapiens, UniProt P18825); test: RSAT (Receptor Selection and Amplification Technology) assay, α2C; settings: for EC50: cells expressing the receptor alone, receptor-mediated growth response, NA = not active; for RSAT Rel Eff α2C: relative efficacy compared to a standard full agonist
T2 construct: expressed in transfected cells
T2 sequence (P18825 1-462): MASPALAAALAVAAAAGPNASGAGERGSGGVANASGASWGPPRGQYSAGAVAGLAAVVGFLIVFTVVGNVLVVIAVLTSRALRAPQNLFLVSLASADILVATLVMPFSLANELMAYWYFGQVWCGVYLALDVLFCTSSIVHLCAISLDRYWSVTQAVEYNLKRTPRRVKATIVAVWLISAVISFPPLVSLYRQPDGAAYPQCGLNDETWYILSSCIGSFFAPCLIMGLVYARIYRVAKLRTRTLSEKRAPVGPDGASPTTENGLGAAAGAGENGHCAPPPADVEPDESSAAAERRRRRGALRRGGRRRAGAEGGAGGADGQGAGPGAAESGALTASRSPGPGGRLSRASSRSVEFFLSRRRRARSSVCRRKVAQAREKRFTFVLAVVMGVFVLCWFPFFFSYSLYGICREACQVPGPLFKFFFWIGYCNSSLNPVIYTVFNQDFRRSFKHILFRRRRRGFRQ
Description: as §1

α2A adrenergic receptor = biological target: T3, α2A adrenergic receptor (Homo sapiens, UniProt P08913); test: RSAT (Receptor Selection and Amplification Technology) assay, α2A
T3 construct: expressed in transfected cells
T3 sequence (P08913 1-465): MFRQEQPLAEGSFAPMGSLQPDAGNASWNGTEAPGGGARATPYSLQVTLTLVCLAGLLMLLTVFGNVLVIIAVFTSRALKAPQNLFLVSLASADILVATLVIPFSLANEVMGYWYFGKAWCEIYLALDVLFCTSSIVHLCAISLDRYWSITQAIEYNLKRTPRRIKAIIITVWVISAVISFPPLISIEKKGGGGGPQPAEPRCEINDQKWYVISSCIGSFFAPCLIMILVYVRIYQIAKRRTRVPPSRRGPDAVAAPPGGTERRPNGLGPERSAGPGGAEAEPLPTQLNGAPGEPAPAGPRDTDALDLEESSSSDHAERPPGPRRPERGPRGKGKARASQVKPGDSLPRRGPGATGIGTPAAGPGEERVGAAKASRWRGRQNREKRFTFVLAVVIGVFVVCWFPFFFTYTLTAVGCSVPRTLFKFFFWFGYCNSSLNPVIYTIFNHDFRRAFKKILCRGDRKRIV
Description: Novel compounds having this general structure were synthesized and tested for alpha adrenergic activity using the Receptor Selection and Amplification Technology (RSAT) assay (Messier et. al., 1995, Pharmacol. Toxicol. 76, pp. 308-311). Cells expressing each of the alpha-2 adrenergic receptors alone were incubated with the various compounds and a receptor-mediated growth response was measured. The compounds activity is described as its EC50 and relative efficacy compared to a standard full agonist.

Row | Structure (SMILES) | EC50 (α2B adrenergic receptor; read-out: RSAT EC50 α2B) [µM] | RSAT Rel Eff α2B (α2B adrenergic receptor) | EC50 (α2C adrenergic receptor) [µM] | RSAT Rel Eff α2C (α2C adrenergic receptor) | also measured
1 | c1ccc(CC(NC2=NCCC2)c2ccccc2)cc1 (centres unmarked) [Compound 3] | 0.0213 | (0.63) | 0.0141 | (0.36) | 
2 | Cc1cccc(C(Cc2ccncc2)NC2=NCCC2)c1C (single isomer, unassigned) [Compound 18] | 0.0031 | (0.93) | 0.0196 | (0.43) | 
3 | Cc1cncc(CC(NC2=NCCC2)c2cccc(Cl)c2)c1C (centres unmarked) [Compound 33] | 0.0199 | (0.91) |  |  | 
4 | Clc1cccc(C(Cc2ccccc2)NC2=NCCC2)c1 (centres unmarked) [Compound 8] | 0.0116 | (0.71) |  |  | 
5 | c1ccc(C(Cc2ccccn2)NC2=NCCC2)cc1 (centres unmarked) [Compound 24] | 0.214 | (0.44) |  |  | 
6 | Cc1c(F)cccc1CC(NC1=NCCC1)c1cccc(Cl)c1Cl (centres unmarked) [Compound 15] | 0.0128 | (0.70) |  |  | 
7 | Clc1cccc(C(Cc2ccncc2)NC2=NCCC2)c1Cl (centres unmarked) [Compound 1] | 0.0089 | (1.25) | 0.0484 | (0.59) | 
8 | Clc1cccc(C(Cc2ccccc2Br)NC2=NCCC2)c1Cl (centres unmarked) [Compound 12] | 0.0087 | (0.96) |  |  | 
9 | Clc1ccc(CC(NC2=NCCC2)c2cccc(Cl)c2Cl)c(Cl)c1 (centres unmarked) [Compound 22] | 0.0071 | (1.03) |  |  | 
10 | Clc1cccc(C(Cc2ccc(Cl)nc2)NC2=NCCC2)c1 (centres unmarked) [Compound 31] |  | (0.84) |  |  | EC50 (α2B adrenergic receptor; RSAT EC50 α2B): 0.0672 µM
11 | Clc1cccc(C(Cc2cccnc2)NC2=NCCC2)c1Cl (centres unmarked) [Compound 28, N-(1-(2,3-dichlorophenyl)-2-(pyridin-3-yl)ethyl)-3,4-dihydro-2H-pyrrol-5-amine] |  | (1.19) |  |  | RSAT EC50 α2B (α2B adrenergic receptor): Potent
12 | Clc1cccc(C(Cc2cccnc2Cl)NC2=NCCC2)c1 (centres unmarked) [Compound 30] |  | (1.09) |  |  | RSAT EC50 α2B (α2B adrenergic receptor): Potent
13 | c1ccc(C(Cc2cccnc2)NC2=NCCC2)cc1 (centres unmarked) [Compound 25] | 0.0817 | (0.74) |  |  | 
14 | Cc1cccc(C(Cc2ccccc2)NC2=NCCC2)c1C (centres unmarked) [Compound 6] | 0.0029 | (0.72) |  |  | 
15 | Fc1cccc(Cl)c1CC(NC1=NCCC1)c1cccc(Cl)c1Cl (centres unmarked) [Compound 17] | 0.0195 | (0.73) |  |  | 
16 | COc1cccc(CC(NC2=NCCC2)c2cccc(Cl)c2Cl)c1 (centres unmarked) [Compound 13] | 0.004 | (0.97) | 0.0129 | (0.36) | 
17 | c1ccc(C(Cc2ccncc2)NC2=NCCC2)cc1 (centres unmarked) [Compound 21] | 0.0592 | (0.81) | 0.0396 | (0.34) | 

Row | Structure (SMILES) | EC50 (α2B adrenergic receptor; read-out: RSAT EC50 α2B) [µM] | RSAT Rel Eff α2B (α2B adrenergic receptor) | EC50 (α2C adrenergic receptor) [µM] | RSAT Rel Eff α2C (α2C adrenergic receptor) | also measured
18 | Cc1cncc(CC(NC2=NCCC2)c2cccc(Cl)c2)c1 (centres unmarked) [Compound 29] |  | (1.1) | 0.0298 | (0.36) | EC50 (α2A adrenergic receptor; cells expressing the receptor alone, receptor-mediated growth response, NA = not active): 0.293 µM; RSAT Rel Eff α2A (α2A adrenergic receptor; relative efficacy compared to a standard full agonist): (0.31); RSAT EC50 α2B (α2B adrenergic receptor): Potent
19 | Cc1cccc(C(Cc2cccnc2)NC2=NCCC2)c1C (centres unmarked) [Compound 27] |  | (1.04) |  |  | RSAT EC50 α2B (α2B adrenergic receptor): Potent
20 | Clc1ccc(CC(NC2=NCCC2)c2cccc(Cl)c2Cl)cc1Cl (centres unmarked) [Compound 26] | 0.0086 | (0.93) |  |  | 
21 | Clc1ccccc1C(Cc1ccccc1)NC1=NCCC1 (centres unmarked) [Compound 10] | 0.012 | (0.51) | 0.0133 | (0.37) | 
22 | Cc1ccccc1CC(NC1=NCCC1)c1cccc(Cl)c1 (centres unmarked) [Compound 9] | 0.0032 | (0.62) | 0.0028 |  | 
23 | Fc1c(Cl)cccc1C(Cc1ccccc1)NC1=NCCC1 (centres unmarked) [Compound 14] | 0.0086 | (0.96) | 0.0063 | (0.36) | 
24 | Clc1cccc(C(CCc2ccccc2)NC2=NCCC2)c1Cl (centres unmarked) [Compound 23] | 0.057 | (0.69) |  |  | 
25 | Fc1ccc(CC(NC2=NCCC2)c2cccc(Cl)c2Cl)cc1 (centres unmarked) [Compound 11] | 0.008 | (0.80) |  |  | 
26 | Cc1cccc(C(Cc2ccncc2)NC2=NCCC2)c1C (single isomer, unassigned) [Compound 19] | 0.21 | (0.58) |  |  | 
27 | Fc1c(Cl)cccc1C(Cc1ccncc1)NC1=NCCC1 (centres unmarked) [Compound 5] | 0.0108 | (0.94) |  |  | 
28 | Clc1ccccc1C(Cc1ccncc1)NC1=NCCC1 (centres unmarked) [Compound 4] | 0.0384 | (0.57) | 0.0103 | (0.56) | 
29 | Clc1cccc(C(Cc2ccccc2)NC2=NCCC2)c1Cl (centres unmarked) [Compound 7] | 0.0066 | (0.88) |  |  | 
30 | Clc1cc(Cl)cc(CC(NC2=NCCC2)c2cccc(Cl)c2Cl)c1 (centres unmarked) [Compound 20] | 0.0022 | (1.18) | 0.0171 | (0.46) | 
31 | Cc1cccc(C(Cc2ccncc2)NC2=NCCC2)c1C (centres unmarked) [Compound 2] | 0.0087 | (1.04) | 0.0848 | (0.37) | 
32 | Cc1c(Br)cncc1CC(NC1=NCCC1)c1cccc(Cl)c1 (centres unmarked) [Compound 32] | 0.0112 | (0.92) |  |  | 
33 | Cc1cccc(C(Cc2cncc(C)c2C)NC2=NCCC2)c1 (centres unmarked) [Compound 34] | 0.0051 | (0.85) |  |  | 
34 | Clc1ccc(Cl)c(CC(NC2=NCCC2)c2cccc(Cl)c2Cl)c1 (centres unmarked) [Compound 16] | 0.0105 | (1.04) | 0.0125 | (0.35) | 
